Here are results for two compounds from BindingDB's records for patent US11897898 (Biogen Ma, 2024).

The experiment deals with T1, Mitogen-activated protein kinase kinase kinase 5 (Homo sapiens, UniProt Q99683).
T1 sequence (Q99683 whole entry): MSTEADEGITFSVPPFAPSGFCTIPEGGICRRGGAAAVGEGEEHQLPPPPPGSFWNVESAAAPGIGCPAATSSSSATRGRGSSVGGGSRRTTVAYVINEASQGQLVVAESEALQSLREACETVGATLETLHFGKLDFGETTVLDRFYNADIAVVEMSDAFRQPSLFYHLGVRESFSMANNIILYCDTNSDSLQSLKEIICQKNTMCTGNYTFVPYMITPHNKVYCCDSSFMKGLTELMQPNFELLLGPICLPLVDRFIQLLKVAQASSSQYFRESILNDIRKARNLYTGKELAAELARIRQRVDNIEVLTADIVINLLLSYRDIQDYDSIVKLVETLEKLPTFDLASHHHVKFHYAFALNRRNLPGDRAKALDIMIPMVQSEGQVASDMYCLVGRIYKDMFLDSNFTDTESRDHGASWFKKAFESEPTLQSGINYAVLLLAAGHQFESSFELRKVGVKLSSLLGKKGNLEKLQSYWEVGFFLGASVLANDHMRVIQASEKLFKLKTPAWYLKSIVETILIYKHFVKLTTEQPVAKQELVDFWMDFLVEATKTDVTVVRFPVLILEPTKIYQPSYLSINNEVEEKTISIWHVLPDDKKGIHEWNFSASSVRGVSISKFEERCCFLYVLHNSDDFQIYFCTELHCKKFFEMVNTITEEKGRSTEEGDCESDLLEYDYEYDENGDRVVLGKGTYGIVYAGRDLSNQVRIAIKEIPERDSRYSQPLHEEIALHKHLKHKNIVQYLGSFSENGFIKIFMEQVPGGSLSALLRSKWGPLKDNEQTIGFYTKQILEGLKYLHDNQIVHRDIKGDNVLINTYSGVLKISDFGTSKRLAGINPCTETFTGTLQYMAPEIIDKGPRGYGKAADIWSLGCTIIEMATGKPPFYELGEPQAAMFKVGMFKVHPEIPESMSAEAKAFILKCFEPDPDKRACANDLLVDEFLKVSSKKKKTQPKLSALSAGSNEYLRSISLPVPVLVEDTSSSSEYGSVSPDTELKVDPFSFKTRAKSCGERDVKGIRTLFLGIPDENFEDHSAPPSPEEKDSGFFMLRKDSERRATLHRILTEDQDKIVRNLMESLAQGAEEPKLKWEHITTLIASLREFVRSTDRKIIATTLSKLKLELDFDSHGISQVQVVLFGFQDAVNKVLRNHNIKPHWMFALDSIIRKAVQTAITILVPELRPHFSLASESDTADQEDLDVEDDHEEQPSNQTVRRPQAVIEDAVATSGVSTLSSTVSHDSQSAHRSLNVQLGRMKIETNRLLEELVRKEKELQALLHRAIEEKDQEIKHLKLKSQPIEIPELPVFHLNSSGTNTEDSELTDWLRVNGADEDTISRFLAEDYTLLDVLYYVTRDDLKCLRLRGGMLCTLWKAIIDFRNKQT
Nature of the experiment: ASK1 Enzyme Assay. Here is the method: The protein kinase inhibitory activity of the compounds described herein were tested using the ASK1/MAP3K5 assay by Reaction Biology Corp. (Malvern, Pa.). The assay procedure follows (and is also available on the Reaction Biology Corp. website).Base Reaction Buffer: 20 mM Hepes (pH 7.5), 10 mM MgCl2, 1 mM EGTA,0.02% Brij35, 0.02 mg/mL BSA, 0.1 mM Na3VO4, 2 mM DTT, 1% DMSO;Substrate: 20 μM of myelin basic protein (MBP) and 10 μM ATP;Protein kinase: ASK1/MAP3K5.Reaction Procedure:1. Prepare indicated substrate in freshly prepared Base Reaction Buffer.2. Deliver any required cofactors to the substrate solution.3. Deliver indicated kinase into the substrate solution and gently mix.4. Deliver compounds in DMSO into the kinase reaction mixture by Acoustic; technology (Echo550; nanoliter range), incubate for 20 minutes at room temperature.5. Deliver 33P-ATP (specific activity 10 μCi/μL) into the reaction mixture to initiate the reaction.6. Incubate kinase reaction for 2 hours at room temperature.7. Reactions are spotted onto P81 ion exchange paper.8. Detect kinase activity by filter-binding method.

For the compound `C[C@@H]1CCCOc2ncc(N3CCOCC3)cc2C(=O)Nc2cccc(n2)-c2nncn21` [US11897898, Example 6], the IC50 (usually the concentration that inhibits the measured activity by half) is “in the range around 550 nM”.
Regarding `C[C@@H]1CCCOc2ncc(-c3ccncc3)cc2C(=O)Nc2cccc(n2)-c2nncn21` [US11897898, Example 18], the IC50 result was “in the range around 550 nM”.
